In experiment [1] the test system is accumulation of dulcitol in the lenses. The experiment in a line: galactosemic rats, dulcitol accumulation in the lens. Format: in vivo, rat (Sprague-Dawley). As to conditions: 4 days, vs untreated galactosemic rats. From the text: The aldose reductase inhibiting property of the compounds of this invention and the utilization of the compounds in preventing, diminishing and alleviating diabetic complications are demonstrable in experiments using galactosemic rats, see Dvornik et al., cited above. Such experiments are exemplified hereinbelow after the listing of the following general comments pertaining to these experiments:
(a) Four or more groups of six male rats, 50-70 g, Sprague-Dawley strain, were used. The first group, the control group, was fed a mixture of laboratory chow (rodent laboratory chow, Purina) and glucose at 20% (w/w %) concentration. The untreated galactosemic group was fed a similar diet in which galactose is substituted for glucose. The third group was fed a diet prepared by mixing a given amount of the test compound with the galactose containing diet. The concentration of galactose in the diet of the treated groups was the same as that for the untreated galactosemic group.
(b) After four days, the animals were killed by decapitation. The eyeballs were removed and punctured with a razor blade; the freed lenses were rolled gently on filter paper and weighed. The sciatic nerves were dissected as completely as possible and weighed. Both tissues were frozen and can be kept up to two weeks before being analyzed for dulcitol.
(c) The polyol determination was performed by a modification of the procedure of M. Kraml and L. Cosyns, Clin. Biochem., 2, 373 (1969). Only two minor reagent changes were made: (a) The rinsing mixture was an aqueous 5% (w/v) trichloroacetic acid solution and (b) the stock solution was prepared by dissolving 25 mg of dulcitol in 100 ml of an aqueous trichloroacetic acid solution. [N.B.: For each experiment the average value found in the tissue from rats fed the glucose diet was subtracted from the individual values found in the corresponding rat tissue to obtain the amount of polyol accumulated].
The figures under L and N represent the percentage decrease of dulcitol accumulation in the tissues of the lens and sciatic nerve, respectively, for treated rats as compared to untreated rats.

The target in experiment [2] is T1, aldose reductase (Bos taurus, UniProt P16116).
T1 construct: the preparation of the enzyme from bovine lens; from tissue; host or cells: bovine lens
The experiment in a line: in vitro aldose reductase inhibition (modified Hayman and Kinoshita procedure). Format: biochemical, bovine. To be noted: for inhibition at 10 µM: 10^-5 molar, read-out: % Inhibition at Different Molar Concentration (in vitro), 10^-5; for inhibition at 1 µM: 10^-6 molar, read-out: % Inhibition at Different Molar Concentration (in vitro), 10^-6; for inhibition at 0.1 µM: 10^-7 molar, read-out: % Inhibition at Different Molar Concentration (in vitro), 10^-7. An excerpt: In the present case the procedure of Hayman and Kinoshita is modified in that the final chromatography step is omitted in the preparation of the enzyme from bovine lens.

The subject of experiment [3] is aldose reductase. To be noted: literature; cited from earlier work.

Take `CN(CC(=O)O)C(=S)c1cccc2c(C(F)(F)F)cccc12` [Example 53b, N-[[(5-trifluoromethyl)-1-naphthalenyl]thioxomethyl]-N-methylglycine]: the “percentage decrease of dulcitol accumulation, lens (L)” value (“percentage decrease” for short) in experiment [1] (11 mg/kg/day in diet) was determined as 2%. Moreover, in experiment [2], the inhibition at 10 µM was determined as 93%, the inhibition at 1 µM was found to be 84% and the inhibition at 0.1 µM amounted to 33%.

As for `COc1ccc2c(C(=S)N(C)CC(=O)O)cccc2c1Br` [Example 41, N-[(5-bromo-6-methoxy-1-naphthalenyl)thioxomethyl]-N-methylglycine], the “percentage decrease” value in experiment [1] (162 mg/kg/day in diet) amounted to 34%. For the same compound, in experiment [2], the inhibition at 10 µM worked out at 99%, the inhibition at 1 µM came out at 91% and the inhibition at 0.1 µM was found to be 72%.

Consider `COC(=O)CN(C)C(=S)c1cccc2c(C(F)(F)F)c(OC)ccc12` [Example 23, N-[[5-(trifluoromethyl)-6-methoxy-1-naphthalenyl]thioxomethyl]-N-methylglycine methyl ester], for which, in experiment [1] (11 mg/kg/day in diet), the “percentage decrease” value came out at 10%. In addition, in experiment [2], the inhibition at 10 µM was determined as 9%.

As for `O=C(O)CN1C(=O)c2cccc3cccc(c23)C1=O` [1,3-Dioxo-1H-benz[de]isoquinoline-2(3H)-acetic acid], the “inhibition of aldose reductase (result in words)” value in experiment [3] is on record as “effective inhibitor of aldose reductase”.

`CN(CC(=O)O)C(=S)c1cccc2c(Br)cccc12` [Example 32, N-[(5-Bromo-1-naphthalenyl)thioxomethyl]-N-methylglycine]: the “percentage decrease” value in experiment [1] (62 mg/kg/day in diet) is recorded as 14%; in experiment [1] (121 mg/kg/day in diet), 20%; in experiment [1] (189 mg/kg/day in diet), 24%. Besides, the inhibition at 10 µM in experiment [2] is 93%. For the same compound, the inhibition at 1 µM in experiment [2] came to 87%. Moreover, in experiment [2], the inhibition at 0.1 µM came out at 47%.

For `CN(CC(=O)O)C(=S)c1cccc2c(Cl)cc(Cl)cc12` [Example 46, N-[(5,7-dichloro-1-naphthalenyl)thioxomethyl]-N-methylglycine], the “percentage decrease” value in experiment [1] (52 mg/kg/day in diet) turned out to be 29%. Further, in experiment [2], the inhibition at 10 µM came out at 88%, the inhibition at 1 µM came to 75% and the inhibition at 0.1 µM was 29%.

With `COc1c(Cl)cc(C(=S)N(C)CC(=O)O)c2ccccc12` [Example 45, N-[(3-chloro-4-methoxy-1-naphthalenyl)thioxomethyl]-N-methylglycine], the “percentage decrease” value in experiment [1] (163 mg/kg/day in diet) worked out at 15%. Further, in experiment [2], the inhibition at 10 µM worked out at 85%, the inhibition at 1 µM came out at 78% and the inhibition at 0.1 µM turned out to be 33%.

Regarding `O=C1NC(=O)[C@@]2(CCOc3ccc(F)cc32)N1` [sorbinil, (S)-6-Fluoro-2,3-dihydrospiro(4H-1-benzopyran-4,4'-imidazolidine)-2',5'-dione], the “inhibition of aldose reductase (result in words)” value in experiment [3] is reported as “aldose reductase inhibiting properties”.

Regarding `CN(CC(=O)O)C(=S)c1cccc2c(Cl)cccc12` [Example 40, N-[(5-chloro-1-naphthalenyl)thioxomethyl]-N-methylglycine], the “percentage decrease” value in experiment [1] (156 mg/kg/day in diet) is on record as 34%. Also, in experiment [2], the inhibition at 10 µM turned out to be 91%, the inhibition at 1 µM is 83% and the inhibition at 0.1 µM was found to be 40%.
